The source of these data is patent US20100311798A1, “2-AMINOOXAZOLINES AS TAAR1 LIGANDS” (priority 2009, published 2010).

For this assay, the target named is mouse TAAR1 (Mus musculus, UniProt Q923Y8). Nature of the assay: Radioligand binding to TAAR1 in membranes of stably transfected HEK293 cells.
mouse TAAR1, sequence (Q923Y8 whole entry): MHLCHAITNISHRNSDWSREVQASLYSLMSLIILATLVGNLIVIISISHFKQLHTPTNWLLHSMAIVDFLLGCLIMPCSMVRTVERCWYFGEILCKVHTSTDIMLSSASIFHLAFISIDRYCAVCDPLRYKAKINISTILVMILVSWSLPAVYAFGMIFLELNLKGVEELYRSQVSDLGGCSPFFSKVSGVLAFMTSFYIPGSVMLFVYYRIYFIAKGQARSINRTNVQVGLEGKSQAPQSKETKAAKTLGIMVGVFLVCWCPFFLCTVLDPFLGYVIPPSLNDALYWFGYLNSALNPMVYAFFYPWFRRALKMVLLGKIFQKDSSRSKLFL
In turn, `c1ccc2c(c1)CCCC2C1=NCCN1` (racemic) [reference compound] gave a dissociation constant Kd of 60 nM.

Regarding `CC1OC(N)=N[C@H]1CCc1ccccc1` (single isomer, unassigned) [Example 8], the affinity, expressed as Ki, was 1.7 nM.

Compound `CC1OC(N)=N[C@H]1Cc1ccccc1` (single isomer, unassigned) [Example 12] registered a Ki of 159 nM.

As to `C[C@@H]1OC(N)=N[C@@H]1CCc1ccccc1` [Example 7, (4R,5S)-5-Methyl-4-phenethyl-4,5-dihydro-oxazol-2-ylamine], the Ki worked out at 27.3 nM. This Ki is about 5.8-fold lower than that of the compound before.

In turn, `C[C@H]1OC(N)=N[C@H]1CCc1ccccc1` [Example 8a, (4S,5R)-5-methyl-4-phenethyl-4,5-dihydro-oxazol-2-ylamine] had a Ki of 3.1 nM.

`CCC1OC(N)=N[C@H]1CCc1ccccc1` (stereo partly drawn) [Example 9, (S)-5-Ethyl-4-phenethyl-4,5-dihydro-oxazol-2-ylamine] had an inhibition constant Ki of 17.1 nM.

For `C[C@H]1OC(N)=N[C@H]1CCCc1ccccc1` [Example 11, (4S,5R)-5-Methyl-4-(3-phenyl-propyl)-4,5-dihydro-oxazol-2-ylamine], the Ki worked out at 0.9 nM.

`C[C@@H]1OC(N)=N[C@H]1CCCc1ccccc1` [Example 11a, (4S,5S)-5-methyl-4-(3-phenyl-propyl)-4,5-dihydro-oxazol-2-ylamine] gave a Ki of 5.8 nM. Against the preceding compound, the Ki is about 6.4-fold higher.

For `C[C@H]1OC(N)=N[C@H]1Cc1ccccc1` [Example 12a, (4S,5R)-4-benzyl-5-methyl-4,5-dihydro-oxazol-2-ylamine], the inhibition constant Ki is 175 nM. This Ki is about 30-fold higher than that of the compound before.

For `C[C@@H]1OC(N)=N[C@H]1CCC1CCCCC1` [Example 13, (4S,5S)-4-(2-Cyclohexyl-ethyl)-5-methyl-4,5-dihydro-oxazol-2-ylamine], the Ki stood at 13.3 nM.

`C[C@H]1OC(N)=N[C@H]1CCC1CCCCC1` [Example 13a, (4S,5R)-4-(2-cyclohexyl-ethyl)-5-methyl-4,5-dihydro-oxazol-2-ylamine] came in with a Ki of 52.7 nM.

As to `C[C@H]1OC(N)=N[C@H]1CCc1ccc(Cl)cc1` [Example 14, (4S,5R)-4-[2-(4-Chloro-phenyl)-ethyl]-5-methyl-4,5-dihydro-oxazol-2-ylamine], the Ki is 0.7 nM.

For the compound `C[C@@H]1OC(N)=N[C@H]1CCc1ccc(Cl)cc1` [Example 14a, (4S,5S)-4-[2-(4-chloro-phenyl)-ethyl]-5-methyl-4,5-dihydro-oxazol-2-ylamine], the affinity, expressed as Ki, was 1.8 nM.

In turn, `C[C@H]1OC(N)=N[C@H]1CCc1ccc(Cl)c(Cl)c1` [Example 15, (4S,5R)-4-[2-(3,4-Dichloro-phenyl)-ethyl]-5-methyl-4,5-dihydro-oxazol-2-ylamine] had a Ki of 0.6 nM.

As to `C[C@@H]1OC(N)=N[C@H]1CCc1ccc(Cl)c(Cl)c1` [Example 15a, (4S,5S)-4-[2-(3,4-dichloro-phenyl)-ethyl]-5-methyl-4,5-dihydro-oxazol-2-ylamine], the Ki turned out to be 8 nM. Compared with the last compound, the Ki is about 13-fold higher.

`C[C@H]1OC(N)=N[C@H]1CCCc1ccc(Cl)cc1` [Example 17, (4S,5R)-4-[3-(4-Chloro-phenyl)-propyl]-5-methyl-4,5-dihydro-oxazol-2-ylamine] came in with a Ki of 0.3 nM.
